Results as given in US9464007B2, “Antifungal wallboards and building materials and methods for the production thereof” (priority 2004, dated 2016).
Converted amounts (≈) assume the structure as drawn.

What was measured:
Assay type in all cases: cell-based
Aureobasidium pullulans [1] = test: Synergy testing of 2-way mixtures, 24 well plates; details: A. pullulans
Procedure: (§1) For synergism testing of the 2-way mixtures 100 ul of each fungicide were filled into the 24 well plates (8 different rates) and 800 ul of 0.3% PDA media containing the spore suspension was added (see above). Different ratios of the 2 fungicide rates were tested at the same time.
(§2) Alternaria tenuissima, Penicillium citrinum, Stachybotrys chartarum, Aspergillus niger and Aureobasidium pullulans were separately cultivated on PDA media to […] sporulation. Spore suspensions were produced for each fungi.
(§3) For the mixtures of different fungicides the synergism was calculated based on the Colby equation, which is described below: […]
(§4) The fungicidal action to be expected, We, for a given combination of two fungicides can be calculated as follows (see COLBY, S. R. “Calculating synergistic and antagonistic response of herbicide combinations”. Weeds 15, pages 20-22; 1967): We=X+[Y×(100−X)/100] wherein:
(§5) If the activity actually observed is greater than the expected value We, there is a synergistic effect.
(§6) All rates below are expressed as mg ai/l (i.e. ppm).

Stachybotrys chartarum [2] = test: Synergy testing of 2-way mixtures, 24 well plates; details: S. chartarum; rate (FDL) 0.05 mg ai/l
Procedure: as §1, §2, §3, §4, §5, §6

Aspergillus niger [3] = test: Synergy testing of 2-way mixtures, 24 well plates; details: A. niger
Procedure: as §1, §2, §3, §4, §5, §6

Aureobasidium pullulans [4] = test: Liquid culture assay on 24 well plates, solo ai (EC95/MIC)
Procedure: as §2
(§7) Test method used: liquid culture assay on 24 well plates.
(§8) For solo (i.e. single) ai testing the formulated fungicide (100 ul) was filled into the 24 well plates (8 different rates: 100-0.05 mg ai/l final volume as described above) and 100 ul distilled water was added. Afterwards 800 ul of 0.3% PDA media was added to the plate. The spore suspension of the specific fungi was added to this media in advance containing approx. 100.000 spores/ml. The 24 well plates were sealed and incubated at 24° C.
(§9) Dependent on the growth properties of each organisms, the evaluation was done after 3 to 6 days, when the surface of the check well was covered with mycelium. The evaluation was performed by assessing the growth of the fungi related to the check growth. The results are expressed as % activity relative to the check (values of 0-100% growth). Afterwards the results were converted in % growth inhibition. EC95 values and also MIC (minimal inhibition concentration) values were derived for each compound.
(§10) For each solo compound a graph was drawn of percentage inhibition against the concentration of the fungicide. […] Also the concentration that gave the minimum inhibition concentration was derived as MIC value

Stachybotrys chartarum [5] = test: as above
Procedure: as §2, §7, §8, §9, §10

Alternaria tenuissima = test: as above
Procedure: as §2, §7, §8, §9, §10

Penicillium citrinum = test: as above
Procedure: as §2, §7, §8, §9, §10

Aspergillus niger [6] = test: as above
Procedure: as §2, §7, §8, §9, §10

## N#Cc1c[nH]cc1-c1cccc2c1OC(F)(F)O2 [Fludioxonil]
Aureobasidium pullulans [1]; rate (FDL) 0.8 mg ai/l
  inh % (FDL alone): 10%
Aureobasidium pullulans [1]; rate (FDL) 1.6 mg ai/l
  inh % (FDL alone): 10%
Aureobasidium pullulans [1]; rate (FDL) 3.1 mg ai/l
  inh % (FDL alone): 10%
Aureobasidium pullulans [1]; rate (FDL) 12.5 mg ai/l
  inh % (FDL alone): 10%
Aureobasidium pullulans [1]; rate (FDL) 50 mg ai/l
  inh % (FDL alone): 10%
Aureobasidium pullulans [1]; rate (FDL) 100 mg ai/l
  inh % (FDL alone): 10%
Stachybotrys chartarum [2]
  inh % (FDL alone): 10%
Aspergillus niger [3]; rate (FDL) 0.05 mg ai/l
  inh % (FDL alone): 0%
Aspergillus niger [3]; rate (FDL) 0.2 mg ai/l
  inh % (FDL alone): 30%
Aspergillus niger [3]; rate (FDL) 0.8 mg ai/l
  inh % (FDL alone): 30%
Aspergillus niger [3]; rate (FDL) 1.6 mg ai/l
  inh % (FDL alone): 30%
Aspergillus niger [3]; rate (FDL) 3.1 mg ai/l
  inh % (FDL alone): 30%
Aspergillus niger [3]; rate (FDL) 12.5 mg ai/l
  inh % (FDL alone): 30%
Aspergillus niger [3]; rate (FDL) 50 mg ai/l
  inh % (FDL alone): 30%
Aspergillus niger [3]; rate (FDL) 100 mg ai/l
  inh % (FDL alone): 30%
Aureobasidium pullulans [4]; A. pullulans, 24° C., 3-6 days
  EC95: >100 mg ai/l
Aureobasidium pullulans [4]; Aureobasidium pullulans, read-out: MIC Minimal Inhibition concentration
  MIC: > 100 µg/mL
Stachybotrys chartarum [5]; S. chartarum, 24° C., 3-6 days
  EC95: 0.18 mg ai/l
Stachybotrys chartarum [5]; Stachybotrys chartarum, read-out: MIC Minimal Inhibition concentration
  MIC: 0.2 µg/mL (≈ 0.806 µM)
Alternaria tenuissima; A. tenuissima, 24° C., 3-6 days
  EC95: 1.3 mg ai/l
Alternaria tenuissima; Alternaria tenuissima, read-out: MIC Minimal Inhibition concentration
  MIC: 1.6 µg/mL (≈ 6.45 µM)
Penicillium citrinum; P. citrinum, 24° C., 3-6 days
  EC95: 0.18 mg ai/l
Penicillium citrinum; Penicillium citrinum, read-out: MIC Minimal Inhibition concentration
  MIC: 0.2 µg/mL (≈ 0.806 µM)
Aspergillus niger [6]; A. niger, 24° C., 3-6 days
  EC95: >100 mg ai/l
Aspergillus niger [6]; Aspergillus niger, read-out: MIC Minimal Inhibition concentration
  MIC: > 100 µg/mL
